# Assay results published in patent publication EP4818163A1, “POLYCYCLIC COMPOUND AND USE THEREOF” (Zhejiang Jingke Pharmaceuticals Co., Ltd., priority 2023, dated 2025).
# Key:
# c-Kit kinase = c-Kit kinase (Homo sapiens, UniProt P10721); assay: Enzyme activity assay (c-Kit kinase); assay type: biochemical
# Method: Biological activity tests were performed on partial compounds synthesized in the above examples and comparative examples below. […]
# [1] = Preclinical pharmacokinetic test in rats; assay type: in vivo; conditions: rat, po; male SD rats, intragastric administration (p.o.), 10 mg/kg, plasma
# Method: Healthy adult SD rats, male, aged 6-8 weeks, with a body weight of 200-300 g, purchased from Vital River Company; EDTA-Na2 anticoagulant; and analytical balance, animal weighing scale, magnetic stirrer, refrigerated centrifuge, single-channel manual pipette, and the like.
# • 1. Drug preparation: approximately 10 mg of the test sample was accurately weighed and dissolved in 5% DMSO (after conversion), and then 10% solutol HS-15 and 85% normal saline were added. The mixture was subjected to ultrasonic processing and mixed by vortexing to obtain a solution at a concentration of 1 mg/mL, which was freshly prepared before use. 0.2 mL of the sample was transferred into a 1.5 mL centrifuge tube and stored at -80°C for administration solution concentration analysis. • 2. Animal preparation: the rats were fed in rat cages, and fasted (for at least 10 hours) with free access to water one day before the experiment. On the day of experiment, the rats were weighed and marked at the tail respectively. Blank blood samples were collected respectively before drug administration. The blood samples were collected via the tail vein. • 3. Drug administration: • administration route: intragastric administration (p.o.); • administration dose: 10 mg/kg; • administration volume: 10 mL/kg; and • operation procedure: the rat was restrained in an upright position with a left hand wearing bite-resistant gloves, a 16-gauge gavage needle was inserted through the oral cavity into the pharynx and advanced without obvious resistance, and then the drug was then injected into the stomach. • 4. Sample collection: whole blood (0.1 mL) was collected from each test animal before drug administration and at 0.5 hours, 1 hour, 2 hours, 4 hours, 6 hours, 8 hours, 12 hours and 24 hours after drug administration, transferred into EDTA-Na2 anticoagulant tubes, mixed evenly by inverting the tubes 3-4 times, and then centrifuged at 10000 g and 4°C for 5 minutes to separate plasma. The obtained plasma samples were stored at -80°C for later analysis. The blood samples were collected via the tail vein.
# Specific operation: the rat was secured in a restrainer to fully expose its tail, the tail was wiped with alcohol to make the surface skin absorb the alcohol, so as to induce obvious venous dilation. A suitable vein was selected from two sides, and the needle was inserted at approximately one-third of the distance from the tail tip. An insulin syringe was used as the injection syringe, the needle was inserted with the bevel facing upward, and the needle was immediately adjusted to a parallel position after piercing the skin. Slight sliding resistance of the needle inside the vessel and blood reflux in the injection syringe indicated successful venous access. Approximately 0.1-0.2 mL of whole blood was drawn. Gentle compression was applied for hemostasis after needle removal.
# Preparation of standard curve sample: 25 µL of blank rat plasma was transferred into a centrifuge tube respectively, 25 µL of prepared serial standard solution (prepared in methanol) was added, and then 200 µL of internal standard solution (prepared in methanol) was added. The mixture was mixed by vortexing for 2 minutes, and centrifuged at 10000 g and 4°C for 10 minutes.
# Treatment of the unknown plasma sample: 25 µL of drug-containing rat plasma was collected respectively, and then 25 µL of methanol and 200 µL of internal standard solution were added sequentially. The mixture was mixed by vortexing for 2 minutes, and centrifuged at 10000 g and 4°C for 10 minutes. The supernatant was collected for LC/MS/MS detection.
# A quantitative detection method for the test compound was established by using a Shimadzu liquid chromatography system and a Triple Quad TM 6500+AB mass spectrometer. A concentration of a parent drug in plasma was determined. Plasma concentration-time curves were plotted, and major pharmacokinetic parameters were calculated via a non-compartmental model in winnonlin Phoenix software. […]
# [2] = Brain-penetrating pharmacokinetic test; assay type: in vivo, Sprague-Dawley (SD) rat; conditions: SD rats, p.o., 10 mg/kg, single administration; for Kp: Sprague-Dawley, rat, brain tissue / plasma, po, read-out: Total drug brain-to-plasma ratio (B/P)
# Method: Administration vehicle: 5% DMSO+10% Solutol HS15+85% normal saline
# Formulation preparation process: an appropriate amount of powder was weighed, an appropriate volume of DMSO was added, and the mixture was mixed by vortexing. Subsequently, an appropriate volume of Solutol solution was added and vortexed, then normal saline was added, and the mixture was subjected to vortexing and ultrasonic processing to form a homogeneous and clear formulation solution.
# The experimental animals were fed in an animal room. The animal room was equipped with an air-conditioning system, with adequate ventilation, an indoor temperature was maintained at 20-26°C, and a relative humidity was maintained at 40%-70%. Artificial lighting was applied in the animal room, with a 12-hour light/dark cycle (except for working lights turned on during experimental operations and cleaning). The experimental animals had free access to food and water.
# The purchased animals were fed normally for at least 3 days, rats with healthy physical conditions were included in the experiment, and each rat was marked with a tail number. Animals in an oral administration group were fasted overnight one day before drug administration, and fed 4 hours after drug administration, with free access to water.
# • Administration route: intragastric administration (p.o.) • Administration concentration: 1 mg/mL • Administration dose: 10 mg/kg • Administration volume: 10 mL/kg • Administration frequency: single administration
# Before drug administration, a state of the administration formulation was examined, the homogeneity of the formulation was ensured by vortexing, stirring or shaking, and a theoretical administration volume for each SD rat in every group was calculated according to the following formula. Theoretical; administration volume(mL) = (Dose (mg⋅kg^−1))/(Formulation; concentration(mg⋅mL^−1)) × Body; weight(kg) [formula]
# The rats were sampled at 1 hour, 2 hours, 4 hours, 6 hours, 8 hours and 24 hours after drug administration.
# Plasma: at each time point, 0.25 mL of whole blood was collected from the jugular vein and transferred into a test tube containing an anticoagulant EDTA-K2 (7 µL, 10% EDTA-K2 solution), placed on wet ice, and centrifuged within 1 hour (2,000 g, 2-8°C, 10 minutes), and then, the plasma was taken. The plasma was stored in a pre-chilled centrifuge tube, rapidly frozen in dry ice, and then stored in an ultra-low temperature refrigerator at -60°C or lower until LC-MS/MS analysis.
# Cerebrospinal fluid: the rats were euthanized via a carbon dioxide process, and approximately 60 µL of cerebrospinal fluid was collected by puncture. 1 mL syringe was used, with the bevel of the needle facing upward, the needle tip was inserted into the subarachnoid space in a nearly horizontal position, then the needle was fixed, and the cerebrospinal fluid was slowly aspirated. The collected samples were frozen on dry ice within 30 minutes, and then transferred to an environment at -90°C to -60°C.
# Brain tissue: cardiac perfusion was performed first, and then the brain tissue was isolated. Under deep terminal anesthesia, approximately 80 mL of normal saline was used for cardiac perfusion, and residual blood in the brain tissue was flushed out of cerebral circulation. The isolated brain tissue was gently rinsed once with ice-cold normal saline, excess water was removed, weighed, and then transferred to a frozen storage environment at -90°C to -60°C.
# A quantitative detection method for the test compound was established by using a Shimadzu liquid chromatography system and a Triple Quad TM 6500+AB mass spectrometer. A concentration of a parent drug in a sample was analyzed. Quality control samples were used for variation control over analysis results, and the accuracy of the quality control samples should fall within the range of 80%-120%.
# Pharmacokinetic parameters: Tmax, Cmax, AUC (0-t), AUC (0-∞), T1/2, MRT (0-∞), and the like were calculated by using winnonlin Phoenix 8.1.0.3530. […]
# Sequence of c-Kit kinase (P10721 26-976): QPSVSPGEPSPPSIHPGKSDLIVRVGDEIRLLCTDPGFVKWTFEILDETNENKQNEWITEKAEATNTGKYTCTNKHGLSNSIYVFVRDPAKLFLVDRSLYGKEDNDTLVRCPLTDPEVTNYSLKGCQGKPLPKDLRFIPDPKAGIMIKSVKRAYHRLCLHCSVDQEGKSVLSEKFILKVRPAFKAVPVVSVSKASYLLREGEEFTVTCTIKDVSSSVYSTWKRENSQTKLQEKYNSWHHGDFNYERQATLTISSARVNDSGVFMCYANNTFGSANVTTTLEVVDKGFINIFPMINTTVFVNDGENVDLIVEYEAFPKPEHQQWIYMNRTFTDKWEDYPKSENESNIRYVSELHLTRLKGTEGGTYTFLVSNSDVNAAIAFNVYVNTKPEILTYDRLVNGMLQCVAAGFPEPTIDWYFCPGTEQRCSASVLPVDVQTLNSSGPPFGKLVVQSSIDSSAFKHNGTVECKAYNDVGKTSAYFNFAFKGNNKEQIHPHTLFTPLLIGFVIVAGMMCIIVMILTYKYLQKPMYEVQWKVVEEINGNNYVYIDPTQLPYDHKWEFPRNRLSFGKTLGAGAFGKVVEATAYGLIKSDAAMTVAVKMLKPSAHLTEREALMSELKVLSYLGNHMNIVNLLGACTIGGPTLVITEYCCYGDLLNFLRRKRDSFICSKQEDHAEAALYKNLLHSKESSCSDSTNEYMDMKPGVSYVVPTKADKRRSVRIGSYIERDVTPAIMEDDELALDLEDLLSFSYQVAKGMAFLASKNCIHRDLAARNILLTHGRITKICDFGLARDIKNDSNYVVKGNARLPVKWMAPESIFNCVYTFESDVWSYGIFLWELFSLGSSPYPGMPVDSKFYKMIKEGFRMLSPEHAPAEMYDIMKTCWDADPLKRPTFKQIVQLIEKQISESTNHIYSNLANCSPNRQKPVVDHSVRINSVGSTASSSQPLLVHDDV
SMILES,IC50 (c-Kit kinase) [nM],AUC [1] [ng·h/mL],Cmax [1] [ng/mL],Total drug concentration in brain tissue [2] [ng·h/mL],Total drug concentration in plasma [2] [ng·h/mL],Kp [2]
[2H]C([2H])([2H])N1CCN(Cc2ccc(C(=O)Nc3ccc(C)c(Nc4nc(-c5cccnc5)cs4)c3)c(F)c2)CC1 [Compound T-01],1.67,2690,419,1370.43,2687.12,0.51
[2H]C([2H])([2H])N1CCN(Cc2ccc(C(=O)Nc3ccc(C(F)(F)F)c(Nc4nc(-c5cccnc5)cs4)c3)c(F)c2)CC1 [Compound T-20],2.1,–,–,3092.40,4123.20,0.75
[2H]C([2H])([2H])N1CCN(Cc2ccc(C(=O)Nc3ccc(C(F)(F)F)c(Nc4nc(-c5ccc(F)nc5)cs4)c3)c(F)c2)CC1 [Compound T-19],2.11,–,–,–,–,–
[2H]C([2H])([2H])N1CCN(C([2H])([2H])c2ccc(C(=O)Nc3ccc(C(F)(F)F)c(Nc4nc(-c5ccc(F)nc5)cs4)c3)c(F)c2)CC1 [Compound T-17],1.35,4290,533,–,–,–
[2H]C([2H])(c1ccc(C(=O)Nc2ccc(C(F)(F)F)c(Nc3nc(-c4ccc(F)nc4)cs3)c2)cc1)N1CCN(C)CC1 [Compound T-11],3.55,–,–,–,–,–
[2H]C([2H])(c1ccc(C(=O)Nc2ccc(C(F)(F)F)c(Nc3nc(-c4cccnc4)cs3)c2)c(F)c1)N1CCN(C)CC1 [Compound T-21],1.36,–,–,2763.22,3891.87,0.71
[2H]C([2H])(c1ccc(C(=O)Nc2ccc(C(F)(F)F)c(Nc3nc(-c4ccc(F)nc4)cs3)c2)c(F)c1)N1CCN(C)CC1 [Compound T-16],2.12,4010,516,3129.79,4012.56,0.78

# Second part, the compound after the results:
IC50 (c-Kit kinase) [nM],AUC [1] [ng·h/mL],Cmax [1] [ng/mL],Total drug concentration in brain tissue [2] [ng·h/mL],Total drug concentration in plasma [2] [ng·h/mL],Kp [2],SMILES
3.56,–,–,–,–,–,[2H]C([2H])([2H])N1CCN(C([2H])([2H])c2ccc(C(=O)Nc3ccc(C(F)(F)F)c(Nc4nc(-c5cccnc5)cs4)c3)cc2)CC1 [Compound T-15]
2.13,–,–,–,–,–,[2H]C([2H])(c1ccc(C(=O)Nc2ccc(C(F)(F)F)c(Nc3nc(-c4cccnc4)cs3)c2)cc1)N1CCN(C)CC1 [Compound T-12]
–,3260,486,–,–,–,[2H]C([2H])([2H])N1CCN(C([2H])([2H])c2ccc(C(=O)Nc3ccc(C)c(Nc4nc(-c5cccnc5)cs4)c3)cc2)CC1 [Compound T-04]
–,2370,397,–,–,–,[2H]C([2H])(c1ccc(C(=O)Nc2ccc(C)c(Nc3nc(-c4cccnc4)cs3)c2)cc1)N1CCN(C)CC1 [Compound T-02]
3.12,4000,501,–,–,–,[2H]C([2H])([2H])N1CCN(C([2H])([2H])c2ccc(C(=O)Nc3ccc(C(F)(F)F)c(Nc4nc(-c5cccnc5)cs4)c3)c(F)c2)CC1 [Compound T-18]
3.89,–,–,1798.12,3269.32,0.55,[2H]C([2H])([2H])N1CCN(C([2H])([2H])c2ccc(C(=O)Nc3ccc(C)c(Nc4nc(-c5cccnc5)cs4)c3)c(F)c2)CC1 [Compound T-08]
–,1770,321,356.98,1771.48,0.2,"Cc1ccc(NC(=O)c2ccc(CN3CCN(C)CC3)cc2)cc1Nc1nc(-c2cccnc2)cs1 [Masitinib, reference compound]"
